The text below walks through data of patent US10821100B2, “Triazolone compounds as mPGES-1 inhibitors” (Glenmark Pharmaceuticals S.A., priority 2012, dated 2020).

The structures appear in SMILES notation. pIC50: −log10 of the molar value.

The assay concerns the target T1, Recombinant human mPGES-1 (Homo sapiens, UniProt O14684).
T1 construct: made in house; host or cells: CHO cells (crude microsomal fractions)
T1 sequence (O14684 1-152): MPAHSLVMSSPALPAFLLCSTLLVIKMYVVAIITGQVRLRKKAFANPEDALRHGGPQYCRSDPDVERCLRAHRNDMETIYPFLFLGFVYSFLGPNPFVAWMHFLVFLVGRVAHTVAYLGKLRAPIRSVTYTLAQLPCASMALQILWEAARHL
The assay can be described thus: In-vitro screening of mPGES-1 inhibitors (inhibition of PGE2 formation from PGH2, HTRF detection). The class given is biochemical. Particulars: mPGES-1 enzyme; for inhibition at 1 µM: 1 μM test compound, read-out: Percentage inhibition at 1 μM; for inhibition at 1 µM / inhibition at 10 µM: crude microsomal fractions; for inhibition at 10 µM: 10 μM test compound, read-out: Percentage inhibition at 10 μM; for pIC50: class symbols. In short, it runs like this: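 PGH2-to-PGE2 isomerization run for 1 min with 15 μM PGH2 after 10 min compound preincubation with microsomal enzyme (40–60 μg/mL) and 2.5 mM GSH, pH buffer 0.1 M potassium phosphate with EDTA. Stannous chloride quench, HTRF PGE2 readout, IC50 fitted against uninhibited reaction.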
Background: TR-FRET usually uses a lanthanide donor and a delayed reading to cut background.

The inhibition is the share of the control response that was lost under treatment. A word on the pIC50: it is the IC50 on a negative log10 scale, so that one unit is a factor of ten.

On to `Cc1cc(C(F)(F)F)ccc1-n1nc(-c2cc(CNC(=O)C(C)(C)C)ccc2Cl)[nH]c1=O` [Example-159, N-(4-Chloro-3-(1-(4-(trifluoromethyl)-2-methylphenyl)-4,5-dihydro-5-oxo-1H-1,2,4-triazol-3-yl)benzyl)pivalamide], for which the inhibition at 1 µM was found to be 75.4%, the inhibition at 10 µM amounted to 96.8% and the negative logarithm of the IC50 (pIC50) is < 7.00.

For `CC(C)(C)C(=O)NCc1ccc(Cl)c(-c2nn(-c3ccc(C(F)(F)F)c(F)c3)c(=O)[nH]2)c1` [Example-160, N-(4-Chloro-3-(1-(3-fluoro-4-(trifluoromethyl)phenyl)-4,5-dihydro-5-oxo-1H-1,2,4-triazol-3-yl)benzyl)pivalamide], the inhibition at 1 µM turned out to be 96.6%, the inhibition at 10 µM was found to be 97.3% and the negative logarithm of the IC50 (pIC50) is > 7.30.

On to `CC(C)C(=O)NCc1ccc(Cl)c(-c2nn(-c3ccc(C(F)(F)F)c(F)c3)c(=O)[nH]2)c1` [Example-161, N-(4-Chloro-3-(1-(3-fluoro-4-(trifluoromethyl)phenyl)-4,5-dihydro-5-oxo-1H-1,2,4-triazol-3-yl)benzyl)isobutyramide], for which the inhibition at 1 µM was determined as 98%, the inhibition at 10 µM was found to be 99.4% and the pIC50 was > 7.30.

`CC(C)S(=O)(=O)NCc1ccc(Cl)c(-c2nn(-c3ccc(C(F)(F)F)cc3)c(=O)[nH]2)c1` [Example-162, N-(4-Chloro-3-{5-oxo-1-[4-(trifluoromethyl)phenyl]-4,5-dihydro-1H-1,2,4-triazol-3-yl}benzyl)propane-2-sulfonamide]: the inhibition at 1 µM stood at 99.3%, the inhibition at 10 µM was determined as 99.3% and the pIC50 was > 7.30.

`CC(C)(C)C(=O)NCc1ccc(Cl)c(-c2nn(-c3ccc(C(F)(F)F)cc3F)c(=O)[nH]2)c1` [Example-163, N-(4-Chloro-3-(1-(2-fluoro-4-(trifluoromethyl)phenyl)-4,5-dihydro-5-oxo-1H-1,2,4-triazol-3-yl)benzyl)pivalamide]: the inhibition at 1 µM came out at 91.8%, the inhibition at 10 µM was determined as 98.7% and the negative-log IC50 (pIC50) is > 7.30.

In the case of `Cc1ccc(CNC(=O)C(C)C)c(C)c1-c1nn(-c2ccc(C#CC(C)(C)C)cc2)c(=O)[nH]1` [Example-164, N-(3-(4,5-Dihydro-1-(4-(3,3-dimethylbut-1-ynyl)phenyl)-5-oxo-1H-1,2,4-triazol-3-yl)-2,4-dimethylbenzyl)isobutyramide], the inhibition at 1 µM is 98.3%, the inhibition at 10 µM was determined as 97.2% and the negative logarithm of the IC50 (pIC50) is > 7.30.

Turning to `Cc1ccc(CNC(=O)C(C)(C)C)c(C)c1-c1nn(-c2ccc(C#CC3CC3)cc2)c(=O)[nH]1` [Example-165, N-(3-(1-(4-(2-Cyclopropylethynyl)phenyl)-4,5-dihydro-5-oxo-1H-1,2,4-triazol-3-yl)-2,4-dimethylbenzyl)pivalamide], the inhibition at 1 µM turned out to be 97.9%, the inhibition at 10 µM was 99.5% and the pIC50 was > 7.30.

In the case of `CC(C)(C)C(=O)NCc1ccc(Cl)c(-n2nc(-c3ccc(C#CC4CC4)c(F)c3)[nH]c2=O)c1` [Example-166, N-(4-Chloro-3-(3-(4-(2-cyclopropylethynyl)-3-fluorophenyl)-4,5-dihydro-5-oxo-1,2,4-triazol-1-yl)benzyl)pivalamide], the inhibition at 1 µM was 99.7%, the inhibition at 10 µM came to 100% and the negative-log IC50 (pIC50) is > 7.30.

With `CC(C)(C)C(=O)NCc1ccc(Cl)c(-c2nn(-c3ccc(C#CC4CC4)cc3)c(=O)[nH]2)c1` [Example-167, N-(4-Chloro-3-(1-(4-(2-cyclopropylethynyl)phenyl)-4,5-dihydro-5-oxo-1H-1,2,4-triazol-3-yl)benzyl)pivalamide], the inhibition at 1 µM amounted to 99%, the inhibition at 10 µM is 98.4% and the pIC50 was > 7.30.

Regarding `CC(C)(C)C(=O)NCc1ccc(Cl)c(-n2nc(-c3ccc(C#CC4CC4)cc3F)[nH]c2=O)c1` [Example-168, N-(4-Chloro-3-(3-(4-(2-cyclopropylethynyl)-2-fluorophenyl)-4,5-dihydro-5-oxo-1,2,4-triazol-1-yl)benzyl)pivalamide], the inhibition at 1 µM was determined as 100%, the inhibition at 10 µM is 98.9% and the negative logarithm of the IC50 (pIC50) was > 7.30.

`Cc1ccc(CNC(=O)C(C)(C)CF)c(C)c1-c1nn(-c2ccc(C#CC3CC3)cc2)c(=O)[nH]1` [Example-169, N-(3-(1-(4-(2-Cyclopropylethynyl)phenyl)-4,5-dihydro-5-oxo-1H-1,2,4-triazol-3-yl)-2,4-dimethylbenzyl)-3-fluoro-2,2-dimethylpropanamide]: the inhibition at 1 µM worked out at 95.5%, the inhibition at 10 µM amounted to 99.2% and the negative-log IC50 (pIC50) was < 7.00.

As to `Cc1ccc(CNC(=O)C(C)C)c(C)c1-c1nn(-c2ccc(C#CC(C)(C)C)c(F)c2)c(=O)[nH]1` [Example-170, N-(3-(1-(3-Fluoro-4-(3,3-dimethylbut-1-ynyl)phenyl)-4,5-dihydro-5-oxo-1H-1,2,4-triazol-3-yl)-2,4-dimethylbenzyl)isobutyramide], the inhibition at 1 µM was 99.8%, the inhibition at 10 µM was 98.9% and the negative-log IC50 (pIC50) is > 7.30.

Take `COc1cc(-c2nn(-c3c(Cl)cccc3Cl)c(=O)[nH]2)ccc1C#Cc1cc(Cl)ccc1Cl` [Example-171, 2-(2,6-Dichlorophenyl)-5-(4-(2-(2,5-dichlorophenyl)ethynyl)-3-methoxyphenyl)-2H-1,2,4-triazol-3 (4H)-one]: the inhibition at 1 µM came out at 95.2%, the inhibition at 10 µM stood at 99.6% and the pIC50 was > 7.30.

As to `Cc1cc(C)n(Cc2ccc(-c3nn(-c4cc(CNC(=O)C(C)(C)C)ccc4Cl)c(=O)[nH]3)cc2)n1` [Example-172, N-(4-Chloro-3-(4,5-dihydro-3-(4-((3,5-dimethyl-1H-pyrazol-1-yl)methyl)phenyl)-5-oxo-1,2,4-triazol-1-yl)benzyl)pivalamide], the inhibition at 1 µM came out at 91.9%, the inhibition at 10 µM was determined as 99% and the negative logarithm of the IC50 (pIC50) was < 7.00.

On to `CC(C)(C)C(=O)NCc1ccc(Cl)c(-c2nn(-c3ccc(C(F)(F)F)c(F)c3)c(=O)[nH]2)c1F` [Example-173, N-(4-Chloro-2-fluoro-3-(1-(3-fluoro-4-(trifluoromethyl)phenyl)-4,5-dihydro-5-oxo-1H-1,2,4-triazol-3-yl)benzyl)pivalamide], for which the inhibition at 1 µM is 96.8%, the inhibition at 10 µM came out at 99% and the pIC50 was > 7.30.

In the case of `CC(C)(C)C(=O)NCc1ccc(Cl)c(-c2nn(-c3ccc(Cl)c(C(F)(F)F)c3)c(=O)[nH]2)c1F` [Example-174, N-(4-Chloro-3-(1-(4-chloro-3-(trifluoromethyl)phenyl)-4,5-dihydro-5-oxo-1H-1,2,4-triazol-3-yl)-2-fluorobenzyl)pivalamide], the inhibition at 1 µM turned out to be 99.9%, the inhibition at 10 µM is 100% and the pIC50 is > 7.30.

Regarding `CC(C)(CF)C(=O)NCc1ccc(Cl)c(-c2nn(-c3ccc(C(F)(F)F)cc3)c(=O)[nH]2)c1` [Example-175, N-(4-Chloro-3-(1-(4-(trifluoromethyl)phenyl)-4,5-dihydro-5-oxo-1H-1,2,4-triazol-3-yl)benzyl)-3-fluoro-2,2-dimethylpropanamide], the inhibition at 1 µM was 99.4%, the inhibition at 10 µM amounted to 99.4% and the pIC50 was > 7.30.
